Results from patent US12599559B2, “CD1d-ligand-compound-containing liposome preparation having improved pharmacokinetics” (REGiMMUNE Corporation, priority 2020, dated 2026).
Where two headings read alike, the source gives them in different places.

Test: pharmacokinetics in human clinical trials, plasma KRN7000 by LC-MS/MS
Type: in vivo
Conditions: patients; for Cmax / AUC(0-t): plasma, iv
Description: In a phase I clinical trial, RGI-2001-001 was administered intravenously at a dose of 100 μg/kg as KRN7000 within 30 minutes after transplantation to six patients who had received hematopoietic stem cell transplantation. 2 mL of peripheral blood was collected before and 0.5, 1, 2, 4, 6, 8, 24, 48, 72, and 96 hours after transplantation, respectively, and plasma components were collected. KRN7000 in each plasma was separated and identified by liquid chromatography-mass spectrometry (LC-MS/MS).
Similarly, RGI-2001-003 was administered intravenously at a dose of 100 μg/kg as KRN7000 within 30 minutes after transplantation to seven patients who had received hematopoietic stem cell transplantation, and 2 mL of peripheral blood was collected before and 0.5, 2, 4, 6, 8, 24, and 48 hours after transplantation. Plasma components were collected, and plasma KRN7000 was separated and identified by LC-MS/M. These patients were treated with RGI-2001-003 at a dose of 100 μg/kg as KRN7000 intravenously once a week for 5 to 6 consecutive doses. For the administration on day 14, 2 mL of peripheral blood was collected before and 0.5 and 4 hours after administration, respectively, plasma components were collected, and plasma KRZN7000 was separated and identified by LC-MS/M. The NKT response and the number of activated Tregs (Ki-67+%) in patients treated with RGI-2001-003 administration were monitored over time.

[1] = 100 ug/kg, plasma KRN7000 after RGI-2001-003 iv 100 μg/kg weekly, Day 0

CCCCCCCCCCCCCCCCCCCCCCCCCC(=O)N[C@@H](CO[C@H]1OC(CO)[C@H](O)C(O)C1O)[C@H](O)[C@H](O)CCCCCCCCCCCCCC (stereo partly drawn) [KRN7000, (2S,3S,4R)-1-o-(α-D-galactopyranosyl)-2-(N-hexacosanoylamino)-1,3,4-octadecanetriol]
concentration at 14 day (100 μg/kg as KRN7000, plasma KRN7000 after RGI-2001-003 iv 100 μg/kg weekly, Day 14, read-out: Cmin): 34.1 ng/mL
half-life [1]: 35.8 h
AUC(0-inf) (100 ug/kg, plasma KRN7000 after RGI-2001-003 iv 100 μg/kg weekly, Day 0, read-out: *Est. AUC0-inf): 42500 ng·h/mL
Cmax [1]: 881 ng/mL
AUC(0-t) (100 ug/kg, plasma KRN7000 after RGI-2001-003 iv 100 μg/kg weekly, Day 0, read-out: AUC0-4): 3000 ng·h/mL
Cmax (100 ug/kg, plasma KRN7000 after RGI-2001-003 iv 100 μg/kg weekly, Day 14): 570 ng/mL
AUC(0-t) (100 ug/kg, plasma KRN7000 after RGI-2001-003 iv 100 μg/kg weekly, Day 14, read-out: AUC0-4): 1890 ng·h/mL
